{"source": "ChEMBL document CHEMBL5096221", "about": "“Discovery of a Highly Potent and Orally Bioavailable STAT3 Dual Phosphorylation Inhibitor for Pancreatic Cancer Treatment” (J Med Chem, 2022)", "key": {"BXPC-3 [1]": {"system": "BXPC-3", "assay": "Anti-proliferative activity against human BXPC-3 cells assessed as cell growth inhibition incubated for 72 hrs by MTS assay", "format": "functional, cell-based", "conditions": "BXPC-3, 72 h"}, "[2]": {"assay": "Microsomal stability in human liver microsomes assessed as compound remaining incubated for 60 mins in presence of NADPH by LC-MS/MS analysis", "format": "ADME, Microsome", "conditions": "read-out: Stability"}, "[3]": {"assay": "Microsomal stability in dog liver microsomes assessed as compound remaining incubated for 60 mins in presence of NADPH by LC-MS/MS analysis", "format": "ADME, Canis lupus familiaris, Microsome", "conditions": "read-out: Stability"}, "Cytochrome P450 2C9": {"biological_target": "Cytochrome P450 2C9 (Homo sapiens, UniProt P11712)", "sequence (P11712 whole entry)": "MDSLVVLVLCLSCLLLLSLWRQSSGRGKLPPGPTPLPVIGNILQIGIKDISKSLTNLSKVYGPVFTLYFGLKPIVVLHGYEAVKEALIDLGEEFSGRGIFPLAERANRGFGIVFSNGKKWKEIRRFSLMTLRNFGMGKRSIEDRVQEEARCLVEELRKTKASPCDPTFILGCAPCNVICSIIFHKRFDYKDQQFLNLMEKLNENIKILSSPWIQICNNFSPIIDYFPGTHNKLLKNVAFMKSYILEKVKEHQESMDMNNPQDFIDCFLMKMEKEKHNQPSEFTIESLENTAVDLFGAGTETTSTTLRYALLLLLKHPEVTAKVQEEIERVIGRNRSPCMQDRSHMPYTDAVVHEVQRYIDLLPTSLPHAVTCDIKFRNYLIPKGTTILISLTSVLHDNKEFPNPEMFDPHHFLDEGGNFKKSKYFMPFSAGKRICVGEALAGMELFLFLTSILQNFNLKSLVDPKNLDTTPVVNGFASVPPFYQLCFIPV", "assay": "Inhibition of CYP2C9 in human liver microsomes using tolbutamide as substrate incubated for 60 mins in presence of NADPH by HPLC analysis", "format": "ADME, Microsome"}, "[4]": {"assay": "Cmax in BALB/c mouse at 1 mg/kg,iv measured upto 24 hrs by LC-MS/MS analysis", "format": "ADME, organism-based", "design": "dose 1 mg/kg, time < 24 hrs, route iv", "conditions": "in vivo"}, "[5]": {"assay": "AUC (0-24hrs) in BALB/c mouse at 1 mg/kg,iv measured upto 24 hrs by LC-MS/MS analysis", "format": "ADME, organism-based", "design": "time < 24 hrs, dose 1 mg/kg, route iv", "conditions": "in vivo"}, "[6]": {"assay": "Volume of distribution at steady state in BALB/c mouse at 1 mg/kg,iv measured upto 24 hrs by LC-MS/MS analysis", "format": "ADME, organism-based", "conditions": "BALB/c, in vivo, read-out: Vdss"}, "[7]": {"assay": "MRT (0 to last) in BALB/c mouse at 1 mg/kg,iv measured upto 24 hrs by LC-MS/MS analysis", "format": "ADME, organism-based", "conditions": "BALB/c, in vivo"}, "[8]": {"assay": "Cmax in BALB/c mouse at 10 mg/kg,po measured upto 24 hrs by LC-MS/MS analysis", "format": "ADME, organism-based", "design": "time < 24 hrs, dose 10 mg/kg, route po", "conditions": "in vivo"}, "[9]": {"assay": "AUC (0-infinity) in BALB/c mouse at 10 mg/kg,po measured upto 24 hrs by LC-MS/MS analysis", "format": "ADME, organism-based", "design": "time < 24 hrs, dose 10 mg/kg, route po", "conditions": "in vivo"}, "[10]": {"biological_target": "T1, Signal transducer and activator of transcription 3 (Homo sapiens, UniProt P40763)", "T1 sequence (P40763 whole entry)": "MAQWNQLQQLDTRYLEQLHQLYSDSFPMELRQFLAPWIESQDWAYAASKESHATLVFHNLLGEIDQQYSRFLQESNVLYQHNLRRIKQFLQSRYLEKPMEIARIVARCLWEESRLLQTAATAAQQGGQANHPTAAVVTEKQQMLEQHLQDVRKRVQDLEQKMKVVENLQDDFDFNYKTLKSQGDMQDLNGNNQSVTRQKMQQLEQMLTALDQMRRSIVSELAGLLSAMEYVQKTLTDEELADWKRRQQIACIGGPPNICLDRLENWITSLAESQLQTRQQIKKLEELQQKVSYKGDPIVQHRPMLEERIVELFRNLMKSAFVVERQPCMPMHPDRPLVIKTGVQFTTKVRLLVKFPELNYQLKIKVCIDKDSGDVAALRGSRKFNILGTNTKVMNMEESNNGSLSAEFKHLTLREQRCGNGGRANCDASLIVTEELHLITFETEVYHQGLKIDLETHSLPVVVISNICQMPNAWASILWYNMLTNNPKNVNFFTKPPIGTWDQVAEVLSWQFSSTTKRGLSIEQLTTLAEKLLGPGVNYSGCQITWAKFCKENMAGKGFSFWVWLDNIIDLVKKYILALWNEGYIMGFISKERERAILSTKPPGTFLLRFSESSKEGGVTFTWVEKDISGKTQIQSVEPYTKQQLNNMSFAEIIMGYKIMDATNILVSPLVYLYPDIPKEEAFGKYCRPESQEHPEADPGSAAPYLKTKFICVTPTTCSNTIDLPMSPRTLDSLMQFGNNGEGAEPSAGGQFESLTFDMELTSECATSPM", "assay": "Inhibition of STAT3 in human Capan-2 cells assessed as inhibition of STAT3 phosphorylation at Tyr 705 at 1 to 30 nM incubated for 22 to 24 hrs by western blot analysis", "format": "cell-based", "conditions": "dose 1-30 nM, time 22-24 hrs, DDE = dose-dependent effect"}, "[11]": {"biological_target": "T1, Signal transducer and activator of transcription 3", "assay": "Inhibition of STAT3 in human Capan-2 cells assessed as inhibition of STAT3 phosphorylation at Ser 727 at 1 to 30 nM incubated for 22 to 24 hrs by western blot analysis", "format": "cell-based", "conditions": "dose 1-30 nM, time 22-24 hrs, DDE = dose-dependent effect"}, "[12]": {"biological_target": "T1, Signal transducer and activator of transcription 3", "assay": "Inhibition of STAT3 in human BXPC-3 cells assessed as inhibition of STAT3 phosphorylation at Tyr 705 at 30 nM incubated for 4 to 24 hrs by western blot analysis", "format": "cell-based", "conditions": "time 4-24 hrs, TDE = time-dependent effect"}, "[13]": {"biological_target": "T1, Signal transducer and activator of transcription 3", "assay": "Inhibition of STAT3 in human BXPC-3 cells assessed as inhibition of STAT3 phosphorylation at Ser 727 at 30 nM incubated for 4 to 24 hrs by western blot analysis", "format": "cell-based", "conditions": "time 4-24 hrs, TDE = time-dependent effect"}, "[14]": {"biological_target": "T1, Signal transducer and activator of transcription 3", "assay": "Inhibition of STAT3 in human BXPC-3 cells assessed as inhibition of STAT3 phosphorylation at Tyr 705 at 10 nM incubated for 22 to 24 hrs by western blot analysis", "format": "cell-based", "conditions": "time 22-24 hrs"}, "[15]": {"biological_target": "T1, Signal transducer and activator of transcription 3", "assay": "Inhibition of STAT3 in human Capan-2 cells assessed as reduction of Cyclin D1 expression at 1 to 30 nM incubated for 22 to 24 hrs by western blot analysis", "format": "cell-based", "conditions": "dose 1-30 nM, time 22-24 hrs, DDE = dose-dependent effect"}, "[16]": {"biological_target": "T1, Signal transducer and activator of transcription 3", "assay": "Inhibition of STAT3 in human BXPC-3 cells assessed as reduction of c-Myc expression at 30 nM incubated for 4 to 24 hrs by western blot analysis", "format": "cell-based", "conditions": "time 4-24 hrs, TDE = time-dependent effect"}, "[17]": {"biological_target": "T1, Signal transducer and activator of transcription 3", "assay": "Inhibition of STAT3 in human Capan-2 cells assessed as reduction of c-Myc expression at 30 nM incubated for 4 to 24 hrs by western blot analysis", "format": "cell-based", "conditions": "time 4-24 hrs, TDE = time-dependent effect"}, "[18]": {"biological_target": "T1, Signal transducer and activator of transcription 3", "assay": "Binding affinity to human recombinant STAT3 expressed in Escherichia coli BL21 by MST assay"}, "[19]": {"biological_target": "Tyrosine-protein kinase JAK2 (Homo sapiens, UniProt O60674)", "sequence (O60674 whole entry)": "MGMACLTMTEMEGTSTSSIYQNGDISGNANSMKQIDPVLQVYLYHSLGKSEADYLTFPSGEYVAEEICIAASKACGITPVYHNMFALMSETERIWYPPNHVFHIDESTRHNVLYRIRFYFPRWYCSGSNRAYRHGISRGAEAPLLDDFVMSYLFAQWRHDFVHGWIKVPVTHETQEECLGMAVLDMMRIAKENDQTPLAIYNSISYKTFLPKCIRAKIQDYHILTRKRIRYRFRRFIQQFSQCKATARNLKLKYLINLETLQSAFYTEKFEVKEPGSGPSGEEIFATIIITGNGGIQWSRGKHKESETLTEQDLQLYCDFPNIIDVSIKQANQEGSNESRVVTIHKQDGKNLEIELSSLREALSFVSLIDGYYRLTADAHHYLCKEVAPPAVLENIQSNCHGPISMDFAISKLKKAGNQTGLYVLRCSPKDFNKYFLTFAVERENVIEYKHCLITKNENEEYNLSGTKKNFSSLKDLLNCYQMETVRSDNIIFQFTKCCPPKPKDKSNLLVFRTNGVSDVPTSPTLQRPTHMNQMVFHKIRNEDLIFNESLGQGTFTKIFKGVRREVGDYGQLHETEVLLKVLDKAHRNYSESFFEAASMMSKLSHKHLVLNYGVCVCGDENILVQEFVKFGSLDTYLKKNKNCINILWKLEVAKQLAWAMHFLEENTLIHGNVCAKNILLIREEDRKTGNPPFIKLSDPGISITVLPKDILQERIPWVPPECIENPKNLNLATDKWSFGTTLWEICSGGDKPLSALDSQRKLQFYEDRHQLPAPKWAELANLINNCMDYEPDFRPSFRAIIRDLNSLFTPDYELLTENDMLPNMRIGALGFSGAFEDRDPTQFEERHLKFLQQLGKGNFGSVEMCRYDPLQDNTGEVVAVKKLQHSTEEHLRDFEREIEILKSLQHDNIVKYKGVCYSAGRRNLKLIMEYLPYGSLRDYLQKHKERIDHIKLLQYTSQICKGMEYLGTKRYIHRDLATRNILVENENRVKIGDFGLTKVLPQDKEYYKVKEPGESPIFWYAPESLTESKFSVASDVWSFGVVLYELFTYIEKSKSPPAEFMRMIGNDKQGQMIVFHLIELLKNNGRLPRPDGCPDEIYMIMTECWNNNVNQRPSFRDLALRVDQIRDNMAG", "assay": "Inhibition of JAK2 (unknown origin)"}, "[20]": {"biological_target": "Epidermal growth factor receptor (Homo sapiens, UniProt P00533)", "sequence (P00533 whole entry)": "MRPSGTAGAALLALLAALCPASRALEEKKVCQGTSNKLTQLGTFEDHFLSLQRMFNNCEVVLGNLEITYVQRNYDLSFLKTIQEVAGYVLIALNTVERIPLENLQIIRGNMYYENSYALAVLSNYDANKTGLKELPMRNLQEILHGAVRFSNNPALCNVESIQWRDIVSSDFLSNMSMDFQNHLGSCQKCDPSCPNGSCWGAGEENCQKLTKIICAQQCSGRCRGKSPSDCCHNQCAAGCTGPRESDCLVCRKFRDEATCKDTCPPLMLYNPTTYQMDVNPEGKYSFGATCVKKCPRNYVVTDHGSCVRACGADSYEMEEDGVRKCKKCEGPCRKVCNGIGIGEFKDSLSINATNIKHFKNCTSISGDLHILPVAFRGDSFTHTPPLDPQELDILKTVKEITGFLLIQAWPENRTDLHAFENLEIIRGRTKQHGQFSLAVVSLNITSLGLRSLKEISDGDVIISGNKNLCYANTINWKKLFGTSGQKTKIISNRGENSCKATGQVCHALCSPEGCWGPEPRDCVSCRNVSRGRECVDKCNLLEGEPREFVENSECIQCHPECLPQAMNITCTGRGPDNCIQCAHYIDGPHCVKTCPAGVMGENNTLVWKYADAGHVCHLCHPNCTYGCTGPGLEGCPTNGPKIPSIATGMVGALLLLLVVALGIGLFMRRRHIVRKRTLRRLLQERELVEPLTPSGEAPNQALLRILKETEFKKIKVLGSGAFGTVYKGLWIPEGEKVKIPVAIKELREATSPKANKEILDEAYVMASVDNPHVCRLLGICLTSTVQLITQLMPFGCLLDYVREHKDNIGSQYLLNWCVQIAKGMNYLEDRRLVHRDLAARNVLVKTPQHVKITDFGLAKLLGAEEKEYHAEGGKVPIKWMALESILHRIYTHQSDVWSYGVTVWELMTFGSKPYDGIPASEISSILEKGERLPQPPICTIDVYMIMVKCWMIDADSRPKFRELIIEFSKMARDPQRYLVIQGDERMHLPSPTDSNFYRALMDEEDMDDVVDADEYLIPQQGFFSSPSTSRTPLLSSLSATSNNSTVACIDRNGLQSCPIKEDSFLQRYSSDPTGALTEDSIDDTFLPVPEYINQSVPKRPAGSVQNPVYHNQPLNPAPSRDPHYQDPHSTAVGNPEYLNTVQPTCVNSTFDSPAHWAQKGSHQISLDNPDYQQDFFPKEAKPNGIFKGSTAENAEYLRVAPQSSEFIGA", "assay": "Inhibition of EGFR (unknown origin)"}, "[21]": {"biological_target": "Proto-oncogene tyrosine-protein kinase Src (Homo sapiens, UniProt P12931)", "sequence (P12931 2-536 limits assumed)": "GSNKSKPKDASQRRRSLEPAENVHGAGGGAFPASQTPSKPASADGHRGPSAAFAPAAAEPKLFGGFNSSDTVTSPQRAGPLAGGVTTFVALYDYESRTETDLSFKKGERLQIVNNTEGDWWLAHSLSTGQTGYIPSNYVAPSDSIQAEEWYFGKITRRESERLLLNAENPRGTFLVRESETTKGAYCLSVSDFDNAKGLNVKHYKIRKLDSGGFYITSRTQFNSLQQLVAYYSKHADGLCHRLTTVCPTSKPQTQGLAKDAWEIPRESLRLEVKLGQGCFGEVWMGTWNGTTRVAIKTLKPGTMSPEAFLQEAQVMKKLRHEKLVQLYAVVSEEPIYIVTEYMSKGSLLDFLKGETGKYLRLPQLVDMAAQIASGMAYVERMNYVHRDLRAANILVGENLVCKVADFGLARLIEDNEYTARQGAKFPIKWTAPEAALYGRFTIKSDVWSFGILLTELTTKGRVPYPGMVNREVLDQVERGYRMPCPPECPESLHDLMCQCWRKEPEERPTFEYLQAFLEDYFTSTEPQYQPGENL", "assay": "Inhibition of SRC (unknown origin)"}, "[22]": {"biological_target": "Mitogen-activated protein kinase 3 (Homo sapiens, UniProt P27361)", "sequence (P27361 whole entry)": "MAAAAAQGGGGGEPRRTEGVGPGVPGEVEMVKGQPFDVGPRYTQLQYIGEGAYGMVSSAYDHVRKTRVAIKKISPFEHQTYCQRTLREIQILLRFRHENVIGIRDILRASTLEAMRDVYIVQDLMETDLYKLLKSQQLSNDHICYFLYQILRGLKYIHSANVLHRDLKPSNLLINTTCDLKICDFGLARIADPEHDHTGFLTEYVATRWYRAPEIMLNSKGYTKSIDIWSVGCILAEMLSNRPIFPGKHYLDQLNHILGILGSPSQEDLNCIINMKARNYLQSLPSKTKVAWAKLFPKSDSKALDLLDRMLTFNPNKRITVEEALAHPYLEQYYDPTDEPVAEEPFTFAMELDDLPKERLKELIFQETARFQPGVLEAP", "assay": "Inhibition of ERK1 (unknown origin)"}, "[23]": {"biological_target": "T1, Signal transducer and activator of transcription 3", "assay": "Inhibition of STAT3 in human BXPC-3 cells assessed as inhibition of IL-6 stimulated STAT3 phosphorylation at Tyr 705 at 1 to 30 nM by western blot assay", "format": "cell-based", "conditions": "dose 1-30 nM, DDE = dose-dependent effect"}, "CFPAC-1 [24]": {"system": "CFPAC-1", "assay": "Inhibition of mitochondrial respiration in human CFPAC-1 cells at 1 to 30 nM incubated for 1 hr by seahorse XF96 flux analyzer", "format": "functional, cell-based", "conditions": "dose 1-30 nM, DDE = dose-dependent effect"}, "BXPC-3 [25]": {"system": "BXPC-3", "assay": "Inhibition of mitochondrial respiration in human BXPC-3 cells assessed as reduction in basal respiration rate at 1 to 30 nM incubated for 1 hr by seahorse XF96 flux analyzer", "format": "functional, cell-based", "conditions": "dose 1-30 nM, DDE = dose-dependent effect"}, "BXPC-3 [26]": {"system": "BXPC-3", "assay": "Inhibition of mitochondrial respiration in human BXPC-3 cells assessed as reduction in oxygen consumption rate at 1 to 30 nM incubated for 1 hr by seahorse XF96 flux analyzer", "format": "functional, cell-based", "conditions": "dose 1-30 nM, DDE = dose-dependent effect"}, "CFPAC-1 [27]": {"system": "CFPAC-1", "assay": "Anti-proliferative activity against human CFPAC-1 cells assessed as cell growth inhibition incubated for 72 hrs by MTS assay", "format": "functional, cell-based", "conditions": "CFPAC-1, 72 h"}, "MIA PaCa-2": {"system": "MIA PaCa-2", "assay": "Anti-proliferative activity against human MIA PaCa-2 cells assessed as cell growth inhibition incubated for 72 hrs by MTS assay", "format": "functional, cell-based", "conditions": "MIA PaCa-2, 72 h"}, "Capan-2": {"system": "Capan-2", "assay": "Inhibition of colony formation in human Capan-2 cells at 3 to 10 nM incubated for 5 to 7 days by crystal violet staining assay", "format": "functional, cell-based", "conditions": "dose 3-10 nM, time 5-7 day, DDE = dose-dependent effect"}, "BXPC-3 [28]": {"system": "BXPC-3", "assay": "Antitumor activity against human BXPC-3 cells xenografted BALB/c mouse model assessed as tumor growth inhibition at 30 mg/kg,po administrated once daily for 8 weeks", "format": "functional", "conditions": "BXPC-3, 1344 h, read-out: TGI"}, "[29]": {"assay": "Toxicity in BALB/c mouse xenografted with human BXPC-3 cells assessed as body weight change at 30 mg/kg,po administrated once daily for 8 weeks", "format": "organism-based", "conditions": "in vivo, 1344 h"}, "[30]": {"assay": "Toxicity in BALB/c mouse xenografted with human BXPC-3 cells assessed as effect on heart at 10 mg/kg,po administrated once daily for 8 weeks by H and E staining based microscopic analysis", "format": "organism-based", "conditions": "in vivo, 1344 h"}, "[31]": {"assay": "Toxicity in BALB/c mouse xenografted with human BXPC-3 cells assessed as effect on kidney at 10 mg/kg,po administrated once daily for 8 weeks by H and E staining based microscopic analysis", "format": "organism-based", "conditions": "in vivo, 1344 h"}, "[32]": {"assay": "Toxicity in BALB/c mouse xenografted with human BXPC-3 cells assessed as effect on heart at 30 mg/kg,po administrated once daily for 8 weeks by H and E staining based microscopic analysis", "format": "organism-based", "conditions": "in vivo, 1344 h"}, "[33]": {"biological_target": "T1, Signal transducer and activator of transcription 3", "assay": "Thermal stabilization of STAT3 in human BXPC-3 cells at 10 microM at 50.6 degreeC incubated for 1 hrs by cellular thermal shift assay", "format": "cell-based"}}, "note": "The source made the active and inactive calls. No cut-off for these calls is given here."}
{"smiles": "COc1ccc(-c2noc(-c3cnc(Oc4ccc5cc(C(=O)N6CCN(Cc7ccc(OCC(F)(F)F)cc7)CC6)n(C)c5c4)cn3)n2)cc1", "values": [{"measurement": "IC50", "setting": "BXPC-3 [1]", "value": 0.4, "unit": "nM"}, {"measurement": "remaining at 1 h", "setting": "[2]", "value": 59.5, "unit": "%"}, {"measurement": "remaining at 1 h", "setting": "[3]", "value": 55.8, "unit": "%"}, {"measurement": "IC50", "setting": "Cytochrome P450 2C9", "value": "> 50000", "unit": "nM"}, {"measurement": "Cmax", "setting": "[4]", "value": 2570, "unit": "ng/mL"}, {"measurement": "AUC(0-t) at 24 h", "setting": "[5]", "value": 9510, "unit": "ng·h/mL"}, {"measurement": "Vd", "setting": "[6]", "value": 1.27, "unit": "L/kg"}, {"measurement": "MRT last at 24 h", "setting": "[7]", "value": 8.1, "unit": "h"}, {"measurement": "Cmax", "setting": "[8]", "value": 1810, "unit": "ng/mL"}, {"measurement": "AUC(0-inf)", "setting": "[9]", "value": 34900, "unit": "ng·h/mL"}, {"measurement": "inhibition", "setting": "[10]", "value": "Dde"}, {"measurement": "inhibition", "setting": "[11]", "value": "Dde"}, {"measurement": "inhibition", "setting": "[12]", "value": "Tde"}, {"measurement": "inhibition", "setting": "[13]", "value": "Tde"}, {"measurement": "inhibition", "setting": "[14]", "value": "Active"}, {"measurement": "inhibition", "setting": "[15]", "value": "Dde"}, {"measurement": "inhibition", "setting": "[16]", "value": "Tde"}, {"measurement": "inhibition", "setting": "[17]", "value": "Tde"}, {"measurement": "Kd", "setting": "[18]", "value": 21.3, "unit": "nM"}, {"measurement": "IC50", "setting": "[19]", "value": "> 10000", "unit": "nM"}, {"measurement": "IC50", "setting": "[20]", "value": "> 10000", "unit": "nM"}, {"measurement": "IC50", "setting": "[21]", "value": "> 10000", "unit": "nM"}, {"measurement": "IC50", "setting": "[22]", "value": "> 10000", "unit": "nM"}, {"measurement": "inhibition", "setting": "[23]", "value": "Dde"}, {"measurement": "inhibition", "setting": "CFPAC-1 [24]", "value": "Dde"}, {"measurement": "inhibition", "setting": "BXPC-3 [25]", "value": "Dde"}, {"measurement": "inhibition", "setting": "BXPC-3 [26]", "value": "Dde"}, {"measurement": "IC50", "setting": "CFPAC-1 [27]", "value": 6, "unit": "nM"}, {"measurement": "IC50", "setting": "MIA PaCa-2", "value": 2.1, "unit": "nM"}, {"measurement": "inhibition", "setting": "Capan-2", "value": "Dde"}, {"measurement": "inhibition in vivo at 30 mg/kg", "setting": "BXPC-3 [28]", "value": 74.6, "unit": "%"}, {"measurement": "Activity", "setting": "[29]", "value": "Non-Toxic"}, {"measurement": "Activity", "setting": "[30]", "value": "Non-Toxic"}, {"measurement": "Activity", "setting": "[31]", "value": "Non-Toxic"}, {"measurement": "Activity", "setting": "[32]", "value": "Non-Toxic"}, {"measurement": "Activity", "setting": "[33]", "value": "Active"}]}
